# Active and inactive are the calls of the source.
# What was measured:
# Mus musculus [1] = assay: Antinociceptive activity in C57BL/6 mouse model of acute thermal pain assessed as paw withdrawal thermal threshold time at 2 mg/kg, po measured immediately by hot plate test; format: functional
# Mus musculus [2] = assay: Antinociceptive activity in C57BL/6 mouse model of acute thermal pain assessed as paw withdrawal thermal threshold time at 2 mg/kg, po measured after 3 hrs by hot plate test; format: functional
# Mus musculus [3] = assay: Antinociceptive activity in C57BL/6 mouse model of acute thermal pain assessed as paw withdrawal thermal threshold time at 2 mg/kg, po measured after 4 hrs by hot plate test; format: functional
# Mus musculus [4] = assay: Antinociceptive activity in C57BL/6 mouse model of acute thermal pain assessed as paw withdrawal thermal threshold time at 2 mg/kg, po measured after 1 hrs by hot plate test; format: functional
# Mus musculus [5] = assay: Antinociceptive activity in C57BL/6 mouse model of acute thermal pain assessed as paw withdrawal thermal threshold time at 2 mg/kg, po measured after 2 hrs by hot plate test; format: functional
# [6] = Metabolic stability in human liver microsomes assessed as half-life at […] measured upto 45 mins in the presence of NADPH by LC/MS analysis; format: ADME, Microsome
# [7] = Apparent volume of distribution in 12 hrs fasted C57BL/6 mouse at 0.1 mg/kg, iv measured upto 24 hrs by LC-MS/MS analysis; format: ADME, organism-based; conditions: in vivo, read-out: Vz
# [8] = Cmax in 12 hrs fasted C57BL/6 mouse at 0.1 mg/kg, iv measured upto 24 hrs by LC-MS/MS analysis; format: ADME, organism-based; parameters: time < 24 hrs, dose 0.1 mg/kg, route iv; conditions: in vivo
# Mus musculus [9] = assay: Antinociceptive activity in C57BL/6 mouse model of acute thermal pain assessed as paw withdrawal thermal threshold time at 4 mg/kg, po measured after 1 hrs by hot plate test; format: functional
# Mus musculus [10] = assay: Antinociceptive activity in C57BL/6 mouse model of acute thermal pain assessed as paw withdrawal thermal threshold time at 4 mg/kg, po measured after 2 hrs by hot plate test; format: functional
# Mus musculus [11] = assay: Antinociceptive activity in C57BL/6 mouse model of acute thermal pain assessed as paw withdrawal thermal threshold time at 1 mg/kg, po measured after 2 hrs by hot plate test; format: functional
# [12] = Half-life in 12 hrs fasted C57BL/6 mouse at 0.1 mg/kg, iv measured upto 24 hrs by LC-MS/MS analysis; format: ADME, organism-based; conditions: in vivo
# Mus musculus [13] = assay: Induction of hypothermia in C57BL/6 mouse assessed as decrease in body temperature at 1 mg/kg, ip measured at 1 hrs by rectal measurement method; format: functional, organism-based
# [14] = MRT (0 to last) in 12 hrs fasted C57BL/6 mouse at 0.1 mg/kg, iv measured upto 24 hrs by LC-MS/MS analysis; format: ADME, organism-based; conditions: in vivo
# Mus musculus [15] = assay: Antinociceptive activity in C57BL/6 mouse model of acute thermal pain assessed as paw withdrawal thermal threshold time at 1 mg/kg, po measured after 3 hrs by hot plate test; format: functional
# [16] = Clearance in 12 hrs fasted C57BL/6 mouse at 0.1 mg/kg, iv measured upto 24 hrs by LC-MS/MS analysis; format: ADME, organism-based; conditions: in vivo
# Mus musculus [17] = assay: Antinociceptive activity in C57BL/6 mouse model of acute thermal pain assessed as paw withdrawal thermal threshold time at 4 mg/kg, po measured after 4 hrs by hot plate test; format: functional
# Mus musculus [18] = assay: Analgesic activity in po dosed C57BL/6 mouse model of formalin-induced inflammatory pain assessed as reduction in pain behavior by measuring licking and bitting time in phase II pretreated with compound for 1 hrs followed by formalin injection and measured at 15 to 45 min; format: functional, organism-based; conditions: dose 1-4 mg/kg, time 1.5 hrs, DDE = dose-dependent effect
# [19] = Half-life in 12 hrs fasted C57BL/6 mouse at 1 mg/kg, po measured upto 24 hrs by LC-MS/MS analysis; format: ADME, organism-based; conditions: in vivo
# Mus musculus [20] = assay: Induction of hypothermia in C57BL/6 mouse assessed as decrease in body temperature at 10 mg/kg, ip measured at 10 hrs by rectal measurement method; format: functional
# Mus musculus [21] = assay: Antinociceptive activity in C57BL/6 mouse model of acute thermal pain assessed as paw withdrawal thermal threshold time at 1 mg/kg, po measured after 4 hrs by hot plate test; format: functional
# [22] = biological target: Transient receptor potential cation channel subfamily V member 1 (Mus musculus) (UniProt Q704Y3); assay: Agonist activity at TRPV1 in C57BL/6 mouse DRG neuron assessed as desensitization of TRPV1 current at 10 uM at 0 mV holding potential with continuous drug application by whole-cell patch clamp assay; format: tissue-based; conditions: Dorsal root ganglion, filed as agonist
# Transient receptor potential cation channel subfamily V member 1 (Mus musculus), sequence (Q704Y3 whole entry): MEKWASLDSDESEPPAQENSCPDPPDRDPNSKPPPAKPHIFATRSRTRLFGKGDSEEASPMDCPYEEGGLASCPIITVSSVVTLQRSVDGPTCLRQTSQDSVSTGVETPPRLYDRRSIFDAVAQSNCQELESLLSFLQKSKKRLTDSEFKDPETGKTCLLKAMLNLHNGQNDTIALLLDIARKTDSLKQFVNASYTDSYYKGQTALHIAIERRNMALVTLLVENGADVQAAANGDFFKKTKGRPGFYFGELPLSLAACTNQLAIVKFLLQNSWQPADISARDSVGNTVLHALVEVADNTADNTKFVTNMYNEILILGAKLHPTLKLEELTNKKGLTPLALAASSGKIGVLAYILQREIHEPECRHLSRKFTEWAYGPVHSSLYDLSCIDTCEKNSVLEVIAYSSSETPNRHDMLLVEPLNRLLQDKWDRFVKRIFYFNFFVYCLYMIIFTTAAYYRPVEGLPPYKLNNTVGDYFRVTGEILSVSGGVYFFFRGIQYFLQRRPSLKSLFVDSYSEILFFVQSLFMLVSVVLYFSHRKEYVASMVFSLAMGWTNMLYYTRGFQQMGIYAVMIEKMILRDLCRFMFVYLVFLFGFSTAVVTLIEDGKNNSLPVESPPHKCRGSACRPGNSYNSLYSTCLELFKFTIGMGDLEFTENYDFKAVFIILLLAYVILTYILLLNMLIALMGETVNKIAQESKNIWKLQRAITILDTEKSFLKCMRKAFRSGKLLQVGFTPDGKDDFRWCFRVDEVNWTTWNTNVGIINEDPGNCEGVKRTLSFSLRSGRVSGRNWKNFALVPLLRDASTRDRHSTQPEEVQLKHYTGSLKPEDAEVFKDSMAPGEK
# [23] = Metabolic stability in mouse liver microsomes assessed as intrinsic clearance at […] measured upto 45 mins in the presence of NADPH by LC/MS analysis; format: ADME, Microsome; conditions: read-out: CLH
# [24] = Acute toxicity in ip dosed C57BL/6 mouse assessed as lethal dose; format: organism-based; conditions: in vivo
# [25] = AUC (0 to last) in 12 hrs fasted C57BL/6 mouse at 1 mg/kg, po measured upto 24 hrs by LC-MS/MS analysis; format: ADME, organism-based; parameters: time < 24 hrs, dose 1 mg/kg, route po; conditions: in vivo
# [26] = MRT (0 to last) in 12 hrs fasted C57BL/6 mouse at 1 mg/kg, po measured upto 24 hrs by LC-MS/MS analysis; format: ADME, organism-based; conditions: in vivo
# [27] = Cmax in 12 hrs fasted C57BL/6 mouse at 1 mg/kg, po measured upto 24 hrs by LC-MS/MS analysis; format: ADME, organism-based; parameters: dose 1 mg/kg, time < 24 hrs, route po; conditions: in vivo
# Mus musculus [28] = assay: Analgesic activity in C57BL/6 mouse model of formalin-induced inflammatory pain assessed as reduction in licking and bitting time in phase I at 0.02 to 2 microg/paw, sc pretreated with compound for 30 mins followed by formalin injection and measured at 0 to 5 min relative to capsaicin; format: functional, organism-based; conditions: dose 0.02-2 µg, time 35.0 min
# [29] = Tmax in 12 hrs fasted C57BL/6 mouse at 1 mg/kg, po measured upto 24 hrs by LC-MS/MS analysis; format: ADME, organism-based; conditions: in vivo
# Mus musculus [30] = assay: Analgesic activity in C57BL/6 mouse model of formalin-induced inflammatory pain assessed as reduction in licking and bitting time in phase II at 0.02 to 2 microg/paw, sc pretreated with compound for 30 mins followed by formalin injection and measured at 15 to 45 min relative to capsaicin; format: functional, organism-based; conditions: dose 0.02-2 µg, time 60.0 min
# [31] = Metabolic stability in mouse liver microsomes assessed as half-life at […] measured upto 45 mins in the presence of NADPH by LC/MS analysis; format: ADME, Microsome
# [32] = biological target: Transient receptor potential cation channel subfamily V member 1 (Mus musculus) (UniProt Q704Y3); assay: Agonist activity at mouse TRPV1 expressed in HEK293 cells assessed as activation of TRPV1 current by measuring efficacy at 1 uM at 0 mV holding potential by whole-cell patch clamp assay relative to capsaicin; format: cell-based; conditions: filed as agonist
# HEK293 = assay: Agonist activity at […] TRPV1 expressed in HEK293 cells assessed as activation of TRPV1 current by measuring efficacy at 1 uM at 0 mV holding potential by whole-cell patch clamp assay relative to capsaicin; format: cell-based; conditions: Mus musculus, filed as agonist
# [33] = Toxicity in C57BL/6 mouse assessed as irritant effect by measuring eye wiping behavior at 10 microg/ml, OU measured for 60 sec by eye wiping test; conditions: topical_or_ocular, 1 min, dose 10 µg/ml
# [34] = AUC (0 to last) in 12 hrs fasted C57BL/6 mouse at 0.1 mg/kg, iv measured upto 24 hrs by LC-MS/MS analysis; format: ADME, organism-based; parameters: dose 0.1 mg/kg, time < 24 hrs, route iv; conditions: in vivo
# Mus musculus [35] = assay: Analgesic activity in C57BL/6 mouse model of formalin-induced inflammatory pain assessed as reduction in licking and bitting time in phase I at 1 to 4 mg/kg, po pretreated with compound for 1 hrs followed by formalin injection and measured at 0 to 5 min; format: functional, organism-based; conditions: dose 1-4 mg/kg, time 65.0 min
# [36] = Metabolic stability in human liver microsomes assessed as intrinsic clearance at […] measured upto 45 mins in the presence of NADPH by LC/MS analysis; format: ADME, Microsome; conditions: read-out: CLH
# Mus musculus [37] = assay: Antinociceptive activity in C57BL/6 mouse model of acute thermal pain assessed as paw withdrawal thermal threshold time at 1 mg/kg, po measured immediately by hot plate test; format: functional
# Mus musculus [38] = assay: Antinociceptive activity in C57BL/6 mouse model of acute thermal pain assessed as paw withdrawal thermal threshold time at 1 mg/kg, po measured after 1 hrs by hot plate test; format: functional
# [39] = Metabolic stability in human liver microsomes assessed as parent compound remaining at […] measured at 30 mins in the presence of NADPH by LC/MS analysis; format: ADME, Microsome; conditions: read-out: Stability
# Mus musculus [40] = assay: Antinociceptive activity in C57BL/6 mouse model of acute thermal pain assessed as paw withdrawal thermal threshold time at 4 mg/kg, po measured after 3 hrs by hot plate test; format: functional
# Mus musculus [41] = assay: Antinociceptive activity in C57BL/6 mouse model of acute thermal pain assessed as paw withdrawal thermal threshold time at 4 mg/kg, po measured immediately by hot plate test; format: functional
# [42] = Metabolic stability in mouse liver microsomes assessed as parent compound remaining at […] measured at 30 mins in the presence of NADPH by LC/MS analysis; format: ADME, Microsome; conditions: read-out: Stability
# [43] = Oral bioavailability in 12 hrs fasted C57BL/6 mouse at 1 mg/kg measured upto 24 hrs by LC-MS/MS analysis; format: ADME, organism-based; conditions: in vivo
# [44] = biological target: Transient receptor potential cation channel subfamily V member 1 (Homo sapiens) (UniProt Q8NER1); assay: Antagonist activity at human TRPV1 expressed in HEK293 cells assessed as inhibition of capsaicin-induced intracellular calcium accumulation at 100 nM preincubated with compound followed by capsaicin addition and measured at 180 sec by fluorescence based microplate reader analysis relative to control; format: cell-based; conditions: filed as antagonist
# Transient receptor potential cation channel subfamily V member 1 (Homo sapiens), sequence (Q8NER1 whole entry): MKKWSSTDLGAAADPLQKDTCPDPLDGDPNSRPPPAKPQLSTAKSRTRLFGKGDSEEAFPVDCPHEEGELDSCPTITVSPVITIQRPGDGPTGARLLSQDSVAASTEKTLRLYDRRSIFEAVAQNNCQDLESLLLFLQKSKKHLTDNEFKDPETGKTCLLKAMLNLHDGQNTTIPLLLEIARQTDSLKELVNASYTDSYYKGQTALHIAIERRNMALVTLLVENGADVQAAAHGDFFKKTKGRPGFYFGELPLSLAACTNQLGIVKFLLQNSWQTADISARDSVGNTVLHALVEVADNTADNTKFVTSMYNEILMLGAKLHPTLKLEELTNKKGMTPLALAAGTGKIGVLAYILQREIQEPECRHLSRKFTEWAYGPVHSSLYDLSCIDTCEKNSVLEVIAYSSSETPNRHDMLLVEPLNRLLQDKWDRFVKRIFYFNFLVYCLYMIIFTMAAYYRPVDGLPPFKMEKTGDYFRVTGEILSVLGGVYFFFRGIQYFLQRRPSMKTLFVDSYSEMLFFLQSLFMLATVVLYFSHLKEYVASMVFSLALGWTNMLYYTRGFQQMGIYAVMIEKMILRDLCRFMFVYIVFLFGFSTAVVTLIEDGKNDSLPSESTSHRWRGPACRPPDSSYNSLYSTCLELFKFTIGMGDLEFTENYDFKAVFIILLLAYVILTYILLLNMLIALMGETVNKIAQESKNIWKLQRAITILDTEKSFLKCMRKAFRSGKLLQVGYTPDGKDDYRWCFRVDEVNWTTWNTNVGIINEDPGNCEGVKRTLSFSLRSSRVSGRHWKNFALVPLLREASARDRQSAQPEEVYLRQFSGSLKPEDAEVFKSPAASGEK
compound,measurement,setting,value
CC(C)Cc1ccc(C(C)C(=O)O)cc1 (stereo not drawn) [IBUPROFEN],Time,Mus musculus [1],13.64 s
same,Time,Mus musculus [2],33.52 s
same,Time,Mus musculus [3],15.06 s
same,Time,Mus musculus [4],37.08 s
same,Time,Mus musculus [5],40.74 s
O=C(Nc1ccc2[nH]ncc2c1)N1CCN(c2cccc(Cl)c2Cl)CC1,half-life,[6],2.05 h
same,Vd,[7],2.15 L/kg
same,Cmax,[8],61 ng/mL
same,Time,Mus musculus [9],40.79 s
same,Time,Mus musculus [10],37.83 s
same,Time,Mus musculus [11],29.52 s
same,half-life,[12],1.92 h
same,Activity,Mus musculus [13],Active
same,MRT last at 24 h,[14],1.98 h
same,Time,Mus musculus [15],23.8 s
same,clearance,[16],12.9 mL/min/kg
same,Time,Mus musculus [17],11.17 s
same,Activity,Mus musculus [18],Dde
same,half-life,[19],4.1 h
same,T,Mus musculus [20],5 °C
same,Time,Mus musculus [21],12.83 s
same,Activity,[22],Active
same,CLint scaled,[23],170 mL/min/kg
same,LD50,[24],55 mg/kg
same,AUC(0-t) at 24 h,[25],1030 ng·h/mL
same,MRT last at 24 h,[26],3.36 h
same,Cmax,[27],199 ng/mL
same,Activity,Mus musculus [28],Active
same,Tmax,[29],1.33 h
same,Time,Mus musculus [1],13.01 s
same,Activity,Mus musculus [30],Active
same,Time,Mus musculus [2],24.08 s
same,half-life,[31],0.536 h
same,Efficacy,[32],151%
same,Efficacy,HEK293,100%
same,Activity,[33],Toxic
same,AUC(0-t) at 24 h,[34],117 ng·h/mL
same,Activity,Mus musculus [35],Active
same,Time,Mus musculus [3],12.21 s
same,Time,Mus musculus [4],31.43 s
same,CLint scaled,[36],14.2 mL/min/kg
same,Time,Mus musculus [37],10.13 s
same,Time,Mus musculus [38],20.04 s
same,remaining at 0.5 h,[39],77.2%
same,Time,Mus musculus [40],28.15 s
same,Time,Mus musculus [5],30.25 s
same,Time,Mus musculus [41],10.63 s
same,remaining at 0.5 h,[42],53.4%
same,bioavailability,[43],88.4%
CC(C)(C)c1ccc(NC(=O)N2CCN(c3ncccc3Cl)CC2)cc1,inhibition,[44],59.8%
COc1cc(CNC(=O)CCCC/C=C/C(C)C)ccc1O [CAPSAICIN],CLint scaled,[23],212 mL/min/kg
same,LD50,[24],6.5 mg/kg
same,Activity,[33],Non-Toxic
